≈ marks a conversion by molar mass, not a printed value.
Legend:
Experiment in all cases: ≥ marks a high value that may be exact or a test limit, other limits are often not marked, values filed in µg/mL are converted to µM
[1] = system: Staphylococcus aureus ATCC 25923
[2] = system: Enterococcus faecalis PCM 2673
[3] = system: Escherichia coli ATCC 25922
[4] = system: Candida albicans ATCC 10231
[5] = system: Pseudomonas aeruginosa ATCC 9027
[6] = system: Escherichia coli DSM 1116
[7] = system: Bacillus subtilis DSM 347
[8] = system: Franconibacter helveticus DSM 18390
[9] = system: Staphylococcus xylosus DSM 20287
[10] = system: Pseudomonas aeruginosa NCTC 13437
[11] = system: Bacillus subtilis ATCC 6633
[12] = system: Escherichia coli NCTC 12923
[13] = system: Staphylococcus aureus ATCC 29213
[14] = system: Candida tropicalis IOC 4560
[15] = system: Pseudomonas aeruginosa PAO1
[16] = system: Enterobacter cloacae beta-12
[17] = system: Pseudomonas aeruginosa NCIB 10421
Micrococcus luteus A270 = system: Micrococcus luteus A270
[18] = system: Staphylococcus aureus ATCC 9144
[19] = system: Staphylococcus aureus USA 300
[20] = system: Klebsiella pneumoniae NCTC 13368
Candida albicans MDM8 = system: Candida albicans MDM8
[21] = system: Acinetobacter baumannii ATCC 17978
Escherichia coli SBS 363 = system: Escherichia coli SBS 363
[22] = system: Bacillus megaterium ATCC 10778
[23] = system: Serratia marcescens ATCC 4112
[24] = system: Salmonella enterica subsp. enterica serovar Typhi CMCC 50071
[25] = system: Salmonella enterica subsp. enterica serovar Pullorum C79-13
Escherichia coli UB1005 = system: Escherichia coli UB1005
[26] = system: Salmonella enterica subsp. enterica serovar Typhimurium ATCC 14028
[27] = system: Staphylococcus epidermidis ATCC 12228
[28] = system: Salmonella enterica subsp. enterica serovar Typhimurium C77-31
[29] = system: Escherichia coli ATCC 8739
[30] = system: Staphylococcus aureus HNCMO 112011
[31] = system: Staphylococcus hominis ATCC 27844
[32] = system: Pseudomonas aeruginosa ATCC 15442
[33] = system: Enterococcus faecalis ATCC 2912
[34] = system: Staphylococcus aureus ATCC 6538
[35] = system: Listeria ivanovii Li 4pVS2
[36] = system: Enterococcus faecalis ATCC 29212
[37] = system: Streptococcus pyogenes ATCC 19615
[38] = system: Klebsiella pneumoniae ATCC 13883
[39] = system: Acinetobacter baumannii ATCC 19606
[40] = system: Pseudomonas aeruginosa ATCC 27853
[41] = system: Candida parapsilosis ATCC 22019
[42] = system: Candida albicans ATCC 90028

Structure (SMILES): CC[C@H](C)[C@H](NC(=O)[C@H](CCCCN)NC(=O)[C@H](CCCCN)NC(=O)[C@@H](NC(=O)[C@@H](NC(=O)[C@H](CC(=O)O)NC(=O)[C@H](Cc1ccccc1)NC(=O)[C@H](C)NC(=O)CN)[C@@H](C)CC)[C@@H](C)CC)C(=O)N[C@@H](C)C(=O)N[C@@H](CCC(=O)O)C(=O)N[C@@H](CO)C(=O)N[C@@H](Cc1ccccc1)C(N)=O [GAFDIIKKIAESF]
- MIC [1]: > 356 µM
- MIC [2]: ≥ 356 µM
- MIC [3]: 178 µM (≈ 256 µg/mL)
- MIC [4]: 178 µM (≈ 256 µg/mL)
- MIC [5]: 356 µM (≈ 512 µg/mL)

Structure (SMILES): CC[C@H](C)[C@H](N)C(=O)N[C@@H](C)C(=O)NCC(=O)N[C@@H](CCCCN)C(=O)N[C@H](C(=O)N[C@@H](C)C(=O)N[C@@H](CCCCN)C(=O)N[C@H](C(=O)N[C@@H](C)C(=O)NCC(=O)N[C@@H](CCCCN)C(=O)N[C@H](C(=O)N[C@@H](C)C(=O)N[C@@H](CCCCN)C(=O)N[C@H](C(=O)N[C@@H](C)C(=O)NCC(=O)N[C@@H](CCCCN)C(=O)N[C@H](C(=O)N[C@@H](C)C(N)=O)[C@@H](C)CC)[C@@H](C)CC)[C@@H](C)CC)[C@@H](C)CC)[C@@H](C)CC [IAGKIAKIAGKIAKIAGKIA]
- MIC [6]: 4.13 µM (≈ 8 µg/mL)
- MIC [7]: 1.46 µM (≈ 2.83 µg/mL)
- MIC [8]: 2.92 µM (≈ 5.65 µg/mL)
- MIC [9]: 2.07 µM (≈ 4 µg/mL)

Structure (SMILES): CC[C@H](C)[C@H](N)C(=O)N[C@@H](CC(C)C)C(=O)N[C@@H](CCCCN)C(=O)N[C@@H](CCCCN)C(=O)N[C@H](C(=O)N[C@@H](Cc1c[nH]c2ccccc12)C(=O)N[C@@H](CCC(=O)O)C(=O)NCC(=O)N[C@H](C(=O)N[C@@H](CCCCN)C(=O)N[C@@H](CO)C(=O)N[C@@H](CC(C)C)C(=O)N[C@@H](Cc1ccccc1)C(N)=O)[C@@H](C)CC)[C@@H](C)CC [ILKKIWEGIKSLF]
- MIC [10]: ≥ 40.6 µM
- MIC [11]: 0.78 µM (≈ 1.23 µg/mL)
- MIC [12]: 5.08 µM (≈ 8 µg/mL)
- MIC [13]: 1.56 µM (≈ 2.46 µg/mL)
- MIC [14]: 0.78 µM (≈ 1.23 µg/mL)
- MIC [15]: > 81.3 µM
- MIC [16]: 3.13 µM (≈ 4.93 µg/mL)
- MIC [17]: 6.25 µM (≈ 9.84 µg/mL)
- MIC (Micrococcus luteus A270): 0.78 µM (≈ 1.23 µg/mL)
- MIC [18]: 5.08 µM (≈ 8 µg/mL)
- MIC [19]: 10.2 µM (≈ 16 µg/mL)
- MIC [20]: 10.2 µM (≈ 16 µg/mL)
- MIC (Candida albicans MDM8): 1.56 µM (≈ 2.46 µg/mL)
- MIC [21]: 2.54 µM (≈ 4 µg/mL)
- MIC (Escherichia coli SBS 363): 0.78 µM (≈ 1.23 µg/mL)
- MIC [22]: 0.78 µM (≈ 1.23 µg/mL)
- MIC [23]: 0.36 µM (≈ 0.567 µg/mL)

Structure (SMILES): CSCC[C@H](NC(=O)[C@H](CCCN=C(N)N)NC(=O)[C@H](Cc1c[nH]c2ccccc12)NC(=O)[C@H](CCC(N)=O)NC(=O)[C@H](Cc1c[nH]c2ccccc12)NC(=O)[C@H](CCCN=C(N)N)NC(=O)[C@H](CCCN=C(N)N)NC(=O)[C@H](CS)NC(=O)[C@@H](N)CCCCN)C(=O)N[C@@H](CCCCN)C(=O)N[C@@H](CCCCN)C(N)=O [KCRRWQWRMKK]
- MIC [1]: 128 µM (≈ 205 µg/mL)
- MIC [13]: > 128 µM
- MIC [24]: ≥ 128 µM
- MIC [25]: ≥ 128 µM
- MIC (Escherichia coli UB1005): ≥ 128 µM
- MIC [26]: > 128 µM
- MIC [27]: > 128 µM
- MIC [28]: ≥ 128 µM

Structure (SMILES): CC(C)C[C@H](NC(=O)[C@@H]1CCCN1C(=O)[C@H](CCCN=C(N)N)NC(=O)[C@H](CCCN=C(N)N)NC(=O)[C@H](CS)NC(=O)[C@H](CCC(N)=O)NC(=O)[C@@H](N)CCC(N)=O)C(=O)N[C@@H](Cc1ccc(O)cc1)C(=O)N[C@@H](CS)C(=O)N[C@@H](CCCN=C(N)N)C(=O)N[C@@H](CCCN=C(N)N)C(=O)N[C@@H](CCCN=C(N)N)C(=O)O [QQCRRPLYCRRR]
- MIC [29]: 25 µM (≈ 40.9 µg/mL)
- MIC [30]: 25 µM (≈ 40.9 µg/mL)
- MIC [21]: 25 µM (≈ 40.9 µg/mL)

Structure (SMILES): CSCC[C@H](NC(=O)[C@H](CCC(N)=O)NC(=O)[C@H](CO)NC(=O)CNC(=O)[C@H](CCCCN)NC(=O)[C@@H](N)CCCN=C(N)N)C(=O)NCC(=O)N[C@@H](CCCCN)C(=O)N[C@@H](CCCCN)C(=O)N[C@@H](CS)C(=O)N[C@@H](CCC(=O)O)C(=O)N[C@@H](CS)C(=O)N1CCC[C@H]1C(=O)O [RKGSQMGKKCECP]
- MIC [31]: ≥ 40 µM
- MIC [32]: 13 µM (≈ 18.9 µg/mL)
- MIC [3]: 13 µM (≈ 18.9 µg/mL)
- MIC [4]: 3.2 µM (≈ 4.65 µg/mL)
- MIC [33]: ≥ 40 µM
- MIC [34]: 3.2 µM (≈ 4.65 µg/mL)

Structure (SMILES): CC[C@H](C)[C@H](NC(=O)[C@H](CCCN=C(N)N)NC(=O)[C@H](Cc1ccc(O)cc1)NC(=O)CNC(=O)[C@H](Cc1ccc(O)cc1)NC(=O)[C@H](CCCN=C(N)N)NC(=O)[C@H](CC(C)C)NC(=O)[C@H](C)NC(=O)[C@H](CCC(N)=O)NC(=O)[C@H](CCC(=O)O)NC(=O)[C@@H](NC(=O)[C@H](CCC(N)=O)NC(=O)[C@H](CCCN=C(N)N)NC(=O)[C@H](CCSC)NC(=O)[C@H](Cc1ccc(O)cc1)NC(=O)[C@H](CCC(N)=O)NC(=O)[C@@H](N)CCCN=C(N)N)[C@@H](C)CC)C(=O)N[C@@H](CO)C(=O)N[C@@H](CCCN=C(N)N)C(=O)N[C@@H](CCCN=C(N)N)C(N)=O [RQYMRQIEQALRYGYRISRR]
- MIC [35]: ≥ 50 µM
- MIC [1]: 100 µM (≈ 264 µg/mL)
- MIC [36]: > 100 µM
- MIC [37]: ≥ 50 µM
- MIC [38]: ≥ 80 µM
- MIC [3]: 6.25 µM (≈ 16.5 µg/mL)
- MIC [39]: 6.25 µM (≈ 16.5 µg/mL)
- MIC [40]: 25 µM (≈ 66.1 µg/mL)
- MIC [41]: ≥ 50 µM
- MIC [42]: ≥ 200 µM
